Source: patent publication US7201899B2, “Materials and methods for management of hyperacute rejection in human xenotransplantation” (BresaGen Limited, priority 1994, dated 2007)

Test system: porcine cells (PAE's and PK1's)
Test: Complement-mediated lysis of porcine cells (51CR release and LDH release assays)
Assay type: cell-based
Conditions: effective sugar concentrations covered about 10 mM
Experimental: The ability of human serum to cause the lysis of porcine cells was examined using both pig epithelial (PK1) and aortic endothelial (PAE's) cells, the isolation and culture of which is described in Example 2. Cell lysis was determined using either the ^51Chromium release assay as described by Cerottini and Brunner, Nature New Biol. 237:272, 1972 or the Cytotox LDH release assay according to the manufacturer's instructions (Promega, USA).
A. ^51CR Release Assay • 1. Preparation of Cells: • a) Trypsinize a confluent flask of cells. On average, approximately 3×10^6 PAE's and approximately 3×10^7 PK1 cells are obtained per 10 ml flask. About 1×10^5 cells are required for each well in the 5CR Release Assay. • b) Wash cells […] in 10 ml RPMI (no FCS); spin 1200 rpm for 5 min. • c) Resuspend cells in 100 μl RPMI (with 10% heat-inactivated FCS; see below). • 2. […]

## O=C[C@H](O)[C@@H](O)[C@H](O)[C@H](O)CO[C@H]1O[C@H](CO)[C@H](O)[C@H](O)[C@H]1O [Melibiose, 6-O-α-D-galactopyranosyl-D-glucose]
  protection of porcine cells from complement-induced lysis: protects the porcine cells from lysis
